Laboratory results taken from US6911316B1, “Medical uses of scuPA/suPAR complex” (Thrombotech Ltd., priority 1996, dated 2005).
Values joined by “and” are separate entries in the source; they are usually repeats but may differ in a detail not shown here. Identical values can stand only once.

What was measured:
[1] = test system: radiolabeled plasma-derived clot; experiment: Lysis of radiolabeled plasma-derived clot covered with serum or PBS containing the plasminogen activator; assay type: biochemical, human
Method: (§1) Human fibrinogen (Sigma. St. Louis, Mo.) was radiolabeled with ^125I [Higazi, A A-R. & Abu-Much R. et al. J. Biol. Chem. 270:9472-9477 (1995)]. ^125I-labeled fibrinogen was added to a solution of PBS, pH 7.4, containing either 3 mg/ml fibrinogen and 1 μM glu-plasminogen or plasma. Clots were formed in wells of tissue culture plates with an inner diameter of 16 mm (Costar, Cambridge, Mass.). To initiate the clot formation, 10 μl of a solution containing 2 NIH units of thrombin (Sigma. St. Louis, Mo.) were added to 0.4 ml of fibrinogen solution or to plasma. For determination of fibrinolysis, plasminogen activating agents (1 μM) or 1376 MAT cells, in a total volume of 10 μl each, were directly added to the center of the clot and after incubation for specific periods, the wells were washed and the radioactivity of the lavage solution was determined by means of a gamma counter. Fibrinolysis was also measured as previously described [Higazi, A A-R., et al. Biochem. J. 300:251-255 (1994)], by addition of 0.4 ml of serum or PBS, containing 25 nM of the plasminogen activator agent (scuPA, scuPA/suPAR complex or tcuPA). The plates were incubated at 37° C. in an incubator for the required time (about 2 hours, see legends to the Figures). Aliquots of 25 μl were removed at the specific time point for counting of the solubilized label in a gamma counter. Fibrinolytic activity was determined by following the release from the ^125I-labeled fibrin clot of labeled soluble degradation products of fibrin and is illustrated in FIGS. 7 and 8.

human plasma clot = experiment: Fibrinolysis of clot formed by thrombin from human plasma (lytic zones / solubilized radioactivity); assay type: biochemical
Method: Fibrinogen containing plasminogen was reconstituted in phosphate buffered saline (PBS), pH 7.4 or in serum to a concentration of 3 mg/ml. Fibrin clots were prepared by the addition of 0.025 NIH units of human thrombin per […] fibrinogen solution. The mixture was decanted onto the lid of a culture dish and incubated for 60 min at room temperature. After clot formation, portions of 10 μl of PBS containing 1 μM scuPA, with or without an equimolar concentration of suPAR, were placed on several parts of the surface of the clot. The clot was incubated for 2 to 3 hr at 37° C., until the appearance of digestion areas on the surface. At that stage the clot was washed several times with PBS and incubated overnight with 0.2° trappan blue. On the following day, the clot was rinsed 4 is times with PBS and photographed The pictures were scanned with a Hoefer GS 300 scanning densitometer. The size of the lytic zones was calculated by the NIH image program. […]
as §1, with “Clots were formed in wells of tissue culture plates with an inner diameter of 16 mm (Costar, Cambridge, Mass.). To initiate the clot formation, 10 μl of a solution containing 2 NIH units of thrombin (Sigma. St. Louis, Mo.) were added to 0.4 ml of fibrinogen solution or to plasma.” left out, “The plates were incubated at 37° C. in an incubator for the required time (about 2 hours, see legends to the Figures). Aliquots of 25 μl were removed at the specific time point for counting of the solubilized label in a gamma counter.” left out

[2] = test system: bovine fibrinogen clot reconstituted in serum; experiment: Fibrinolysis of bovine fibrinogen clot reconstituted in serum; assay type: biochemical; settings: FIG. 5
Method: (§2) Fibrinogen containing plasminogen was reconstituted in phosphate buffered saline (PBS), pH 7.4 or in serum to a concentration of 3 mg/ml. Fibrin clots were prepared by the addition of 0.025 NIH units of human thrombin per […] fibrinogen solution. The mixture was decanted onto the lid of a culture dish and incubated for 60 min at room temperature. After clot formation, portions of 10 μl of PBS containing 1 μM scuPA, with or without an equimolar concentration of suPAR, were placed on several parts of the surface of the clot. The clot was incubated for 2 to 3 hr at 37° C., until the appearance of digestion areas on the surface. At that stage the clot was washed several times with PBS and incubated overnight with 0.2° trappan blue. On the following day, the clot was rinsed 4 is times with PBS and photographed The pictures were scanned with a Hoefer GS 300 scanning densitometer. The size of the lytic zones was calculated by the NIH image program.
In an experiment designed to test the possibility that the different effects were related to the source of fibrinogen, the fibrinogen was removed from plasma by clotting with thrombin and removal of the clot by centrifugation to obtain serum. […] The possibility that the stimulatory activity was derived from the anticoagulants present in plasma was considered.

human IgG = experiment: Binding of 125I-suPAR to IgG, precipitation with protein G; settings: for precipitation by protein G from native plasma: 50 nM radiolabeled protein, FIG. 11
Method: Plasma (5 ml) were incubated with 1 ml of IgG (bound to beads, as described) for 2 hr, at 4° C. The beads were precipitated by centrifugation and the plasma was decanted and used for precipitation of radiolabeled suPAR or for formation of clots after addition of thrombin, as described herein before.
(§3) Binding of ^125I-suPAR to IgG was determined by incubation of 50 nM radiolabeled suPAR, 0.1 ml plasma and 0.5 ml of IgG protein, for 2 hr at 4° C. Following incubation, the mixture was centrifugated. The precipitate was washed 4 is times with PBS and the radioactivity incorporated into protein G was determined. Non-specific binding was determined by using plasma that had been depleted of IgG or by measuring the precipitation of irrelevant protein. All experiments were repeated at least three times.

[3] = test system: clot prepared from IgG-depleted plasma; experiment: Lysis of clots derived from normal or IgG-depleted plasma; assay type: biochemical, human; settings: versus clot from normal plasma, FIG. 13
Method: as §1, with “The plates were incubated at 37° C. in an incubator for the required time (about 2 hours, see legends to the Figures). Aliquots of 25 μl were removed at the specific time point for counting of the solubilized label in a gamma counter.” left out, “8. […]” for “8.”

PAI-1 = PAI-1 (Homo sapiens, UniProt P05121); settings: cited from earlier work
Sequence of PAI-1 (P05121 24-402, species assumed): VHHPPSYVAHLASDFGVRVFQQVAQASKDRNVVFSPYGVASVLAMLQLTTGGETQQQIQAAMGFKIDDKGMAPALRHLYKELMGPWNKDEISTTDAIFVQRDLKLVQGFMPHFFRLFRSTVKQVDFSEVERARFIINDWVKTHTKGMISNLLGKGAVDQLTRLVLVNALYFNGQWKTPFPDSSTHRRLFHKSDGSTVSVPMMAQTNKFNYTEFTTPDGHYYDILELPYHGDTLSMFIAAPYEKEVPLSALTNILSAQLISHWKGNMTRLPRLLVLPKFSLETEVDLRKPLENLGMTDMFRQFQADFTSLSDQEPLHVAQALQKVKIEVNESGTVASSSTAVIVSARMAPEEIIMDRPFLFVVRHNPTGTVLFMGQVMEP

[4] = test system: radiolabeled fibrinogen-derived clot; experiment: Lysis of radiolabeled fibrinogen-derived clot covered with serum or PBS containing the plasminogen activator; assay type: biochemical, human
Method: as §1, with “The plates were incubated at 37° C. in an incubator for the required time (about 2 hours, see legends to the Figures). Aliquots of 25 μl were removed at the specific time point for counting of the solubilized label in a gamma counter.” left out

[5] = test system: purified bovine fibrinogen clot; experiment: Fibrinolysis of purified fibrinogen clot, size of lytic zones; assay type: biochemical
Method: as §2

[6] = test system: radiolabeled fibrinogen-derived clot containing 1 μM glu-plasminogen; experiment: Fibrinolytic activity of suPAR-Sepharose precipitates on fibrinogen-derived clot; assay type: biochemical, human; settings: FIG. 10
Method: as §1, with “The plates were incubated at 37° C. in an incubator for the required time (about 2 hours, see legends to the Figures). Aliquots of 25 μl were removed at the specific time point for counting of the solubilized label in a gamma counter.” left out, “8. […]” for “8.”

human fibrinogen = experiment: Fibrinolysis of human fibrinogen clot (not shown); assay type: biochemical; settings: human fibrinogen instead of bovine
Method: as §2

IgG = experiment: Binding of suPAR to IgG with rabbit serum; settings: rabbit serum instead of human serum, data not shown
Method: as §3

plasminogen = settings: cited from earlier work
[7] = test system: 125I radiolabeled fibrinogen clots; experiment: Lysis of 125I radiolabeled fibrinogen clot, activator added directly to the clot, solubilized radioactivity; assay type: biochemical, human; settings: 2 hrs
Method: as §1, with “The plates were incubated at 37° C. in an incubator for the required time (about 2 hours, see legends to the Figures). Aliquots of 25 μl were removed at the specific time point for counting of the solubilized label in a gamma counter.” left out

[8] = plasma derived clot covered by serum, FIG. 8

Substance: ATF: amino-terminal fragment of urokinase; blocks interaction of scuPA with suPAR [reference compound]
- effect of ATF on scuPA/suPAR mediated fibrinolysis ([1]; 250 nM ATF, plasma clot covered with serum): significantly inhibited
- effect of ATF on the stimulatory effect of suPAR on scuPA-mediated fibrinolysis (human plasma clot; plasma clot, FIG. 3): almost complete inhibition
- effect of ATF on the stimulatory effect of suPAR ([2]; bovine fibrinogen clot in serum): can be abolished

Substance: plasminogen: radiolabeled plasminogen used as irrelevant protein control in the protein G precipitation [reference compound]
- precipitation by protein G from native plasma (human IgG): not precipitated

Substance: scuPA/suPAR complex: complex comprising single chain urokinase type plasminogen activator (scuPA) and soluble urokinase plasminogen activator receptor (suPAR)
- change of activity when a plasma clot is used instead of a fibrinogen clot ([1]; FIG. 8): increase
- effect of PBS instead of serum on the surface of the clot on fibrinolytic activity ([1]; plasma clot): not affected
- time to half maximal fibrinolysis ([1]; plasma clot covered with serum, 25 nM activator): 54 min
- time to half maximal fibrinolysis ([1]; plasma clot covered with serum, 50% decrease of the concentration of the complex, data not shown): 102 min
- time needed for half maximal fibrinolysis ([1]; plasma clot covered with serum, doubling the concentration of the complex, data not shown): 33 min
- activity on clot formed by clotting of plasma compared with tcuPA [1, 8]: greater than that of tcuPA
- scuPA/suPAR mediated fibrinolysis of clot from IgG-depleted plasma [3]: markedly retarded
- mechanism of PAI-1 inhibition (PAI-1): competitive and reversible
- susceptibility of activity to PAI-1 (PAI-1): relatively resistant
- size of the lytic area (human plasma clot; human plasma clot, FIG. 2(A) lane (c), upper and lower panels, listed as scuPA and suPAR): 0.94 cm^2 and 0.90 cm^2
- effect of serum covering the clot on fibrinolysis ([4]; clot formed by purified fibrin covered with serum or PBS, FIG. 7): stimulated
- fibrinolytic activity relative to that obtained on a plasma-derived clot ([4]; purified fibrin clot covered with serum): about 60%
- lytic area ([5]; purified bovine fibrinogen clot, FIG. 1(A), two wells each, listed as scuPA and suPAR): 1.19 cm^2 and 1.05 cm^2
- fibrinolytic activity in the absence of plasma-derived protein(s) [6]: little fibrinolytic activity
- scuPA/suPAR-mediated fibrinolytic activity in the presence of plasma-derived protein(s) [6]: significantly increased
- efficiency of clot cleavage compared with scuPA alone ([2]; purified bovine fibrinogen added to serum): greater efficiency than by scuPA alone

Substance: suPAR: soluble urokinase plasminogen activator receptor
- effect of suPAR alone on fibrinolysis ([1]; plasma clot, FIG. 6): depends on the presence of scuPA
- effect of addition of suPAR to tcuPA [1, 8]: small stimulatory effect
- inhibition of scuPA activity by suPAR (human fibrinogen): also observed
- interaction between IgG and suPAR (IgG): no interaction
- enhancement of scuPA-mediated fibrinolysis by addition of suPAR (human plasma clot; plasma clots, FIG. 2): up to 14 fold
- inhibition of scuPA activity in the presence of suPAR ([5]; unlabeled bovine fibrinogen clot, equimolar suPAR): about 40%
- precipitation by protein G from native plasma (human IgG): immunoprecipitates
- precipitation with purified human IgG instead of plasma (human IgG; FIG. 12): the same results were obtained
- precipitation of suPAR with IgG-depleted plasma (human IgG; IgG-depleted plasma versus native plasma): less than 25%
- effect of suPAR on scuPA activity (plasminogen; plasmin substrate Spect PL): stimulated
- effect of suPAR on scuPA-mediated plasminogen activation (plasminogen; synthetic plasmin substrate S-2251): inhibit
- inhibition of scuPA activity in the presence of suPAR [7]: ~50%
